The target of this experiment is T1, Human AMPK α2ß2γ1 (Homo sapiens, UniProt O43741+P54646).
T1 construct: The full length cDNAs of human AMPK ß2 (NM_005399.3) and human AMPK α2 (NM_006252.3); The full length cDNAs of human AMPK ß2 (NM_005399.3); 6xHis (N); made in house; host or cells: Escherichia coli BL21 CodonPlus (DE3)-RIL
As to the kind of experiment: Test Example 2: evaluation of an activator for AMP-activated protein kinase (AMPK), LabChip mobility shift assay with CaMKK2-phosphorylated enzyme. In kind it is biochemical. Particulars: for EC150 (compound concentration showing 150% relative to the control (100%)): FL-Peptide 7 substrate, 25° C., 2 hours; for Emax: relative to control (100%), read-out: Emax (maximum rate of increase in activity within the measurement range). The procedure, abridged:
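E. coli-expressed His-tagged human AMPK α2β2γ1 preactivated with GST-CaMKK2 (0.2 mM ATP, 25° C, 1–1.5 h), preincubated 10 min with compound (1% DMSO), then reacted 2 h at 25° C with 3 μM FL-Peptide 7 and 0.4 mM ATP in substrate solution, pH 7.0. Mobility-shift conversion rate gives % activity increase over no-compound control.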

Each structure is given as a SMILES string.

T1 sequence (P54646 whole entry): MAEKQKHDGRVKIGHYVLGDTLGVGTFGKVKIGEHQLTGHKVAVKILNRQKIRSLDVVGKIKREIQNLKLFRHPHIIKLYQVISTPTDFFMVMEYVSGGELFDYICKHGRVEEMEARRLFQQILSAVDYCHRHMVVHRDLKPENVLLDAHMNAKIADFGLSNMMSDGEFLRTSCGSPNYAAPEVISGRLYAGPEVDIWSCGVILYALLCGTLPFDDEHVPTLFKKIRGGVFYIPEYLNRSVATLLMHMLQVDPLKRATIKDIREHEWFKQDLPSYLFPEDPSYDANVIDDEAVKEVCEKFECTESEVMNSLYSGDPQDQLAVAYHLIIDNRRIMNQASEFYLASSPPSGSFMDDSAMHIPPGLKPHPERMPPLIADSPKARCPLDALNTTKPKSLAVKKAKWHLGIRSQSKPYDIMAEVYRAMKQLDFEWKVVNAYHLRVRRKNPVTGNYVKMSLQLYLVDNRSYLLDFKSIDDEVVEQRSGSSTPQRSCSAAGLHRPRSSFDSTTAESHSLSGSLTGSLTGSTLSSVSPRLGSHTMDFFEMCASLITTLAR
T1 sequence (O43741 whole entry): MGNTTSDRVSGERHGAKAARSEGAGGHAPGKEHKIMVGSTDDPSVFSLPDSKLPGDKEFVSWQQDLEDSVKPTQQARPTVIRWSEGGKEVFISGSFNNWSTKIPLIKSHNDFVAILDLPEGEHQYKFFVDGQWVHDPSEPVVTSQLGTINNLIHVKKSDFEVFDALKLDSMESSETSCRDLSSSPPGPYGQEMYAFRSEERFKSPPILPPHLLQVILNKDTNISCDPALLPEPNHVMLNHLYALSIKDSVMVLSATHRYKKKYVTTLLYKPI
T1 sequence (P54619 whole entry partner): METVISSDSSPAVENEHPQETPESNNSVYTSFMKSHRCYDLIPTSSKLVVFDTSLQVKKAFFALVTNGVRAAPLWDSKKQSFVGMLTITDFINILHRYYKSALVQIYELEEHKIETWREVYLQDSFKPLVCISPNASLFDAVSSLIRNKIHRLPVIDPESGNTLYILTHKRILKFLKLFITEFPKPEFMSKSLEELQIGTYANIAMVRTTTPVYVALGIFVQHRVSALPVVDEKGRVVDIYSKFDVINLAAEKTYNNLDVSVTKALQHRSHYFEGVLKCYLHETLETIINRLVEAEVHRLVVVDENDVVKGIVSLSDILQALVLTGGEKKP

`O[C@@H]1CO[C@H]2[C@@H]1OC[C@H]2Oc1nc2nc(NC3CCc4cc(OCC(F)F)cc(F)c43)c(Cl)cc2[nH]1` (stereo partly drawn) [Compound I-2-75]: the “EC150 (compound concentration showing 150% relative to the control (100%))” value was found to be 2.7 nM and the Emax stood at 581%.

As for `CC(C)(O)C#Cc1cc(F)c2c(c1)CC[C@@H]2Nc1nc2nc(O[C@@H]3CO[C@H]4[C@@H]3OC[C@H]4O)[nH]c2cc1Cl` [Compound I-2-77], the “EC150 (compound concentration showing 150% relative to the control (100%))” value came out at 3.8 nM and the Emax is 650%.

Consider `N#CCn1cc(-c2cc(F)c3c(c2)CC[C@@H]3Nc2nc3nc(O[C@@H]4CO[C@H]5[C@@H]4OC[C@H]5O)[nH]c3cc2Cl)cn1` [Compound I-2-78], for which the “EC150 (compound concentration showing 150% relative to the control (100%))” value came out at 2.5 nM and the maximum response (Emax) was found to be 692%.
